Assay results taken from patent US20260315609A1, “MIXED VASOPRESSIN RECEPTOR AGONIST-ANTAGONIST FOR TREATING END-STAGE LIVER DISEASE AND COMPLICATIONS ASSOCIATED THEREOF” (FERRING B.V., priority 2022, published 2026).
Starred links: 1 amine or outer side, 2 acyl side, 3 side chain; linkers in the order of their positions; H or OH if unused. Positions of bridges follow the written chain, without caps; N, C: chain ends. Non-standard residues stand in square brackets, D forms with d. Residues, ends and D or L forms follow the SMILES beside them. Chains are numbered I, II in the order given. *: point of attachment. isoGln = NC(=O)[C@H](CCC(=O)[*:2])N[*:1]; εLys = N[C@@H](CCCCN[*:1])C(=O)[*:2]; Dab = NCC[C@H](N)C(=O)O; PhAc = O=C(Cc1ccccc1)*

Key:
skin blood flow (SBF) = experiment: Skin blood flow (SBF), laser Doppler, anesthetized Wistar rats, IV infusion; type: in vivo, rat
Experimental: This study was performed over multiple experiments using a total of 48 adult male Wistar rats. […] Compounds were infused via an IV catheter at six sequentially increasing doses.
On the day of experimentation animals were anesthetized and instrumented. A tracheostomy was performed to allow assisted respiration and three catheters were placed. Laser Doppler probes were positioned on a shaved portion of the animal's lower abdominal skin for blood-flow measurements. Ventilation was initiated, and baseline readings for the primary parameter of skin blood flow (SBF) were recorded. Readings for the secondary parameters were also recorded: (1) blood lactate concentration, (2) mean arterial pressure (MAP), and (3) blood pH. Data collection was performed continuously for SBF and MAP using NOTOCORD-hem™ (Instem), and blood samples were taken at each compound dose and immediately analyzed using an i-STAT® meter.
After the final dose administration, animals were euthanized and a final SBF measurement was recorded to detect any signal from the flow probe after the animal's heart stopped beating to control for a signal not attributed to blood flow. Animal body temperature, pulse, and ventilation adequacy were monitored throughout the procedure.

[1] = tested on: CCl4-induced rat model of cirrhosis and ascites; experiment: CCl4-induced cirrhosis and ascites rats, cohort 2 (single IV bolus), renal excretory function; type: in vivo; details: 100 μg/kg IV
Experimental: (§1) Animals: 90 male Wistar rats (Charles River Laboratories, Espana S.A) weighing 200-220 grams at the time of receipt were subjected to a cirrhosis induction program; high dose CCl4 was administered by inhalation twice weekly (Monday and Friday) and phenobarbital (0.3 g/L) was added to drinking water. In some instances, liver damage in this model is caused by hepatotoxic CCl4 metabolites produced in the liver. In some instances, phenobarbital induction of the microsomal enzyme oxidizing system exaggerates the intensity of the hepatic necrosis. The data was collected from the treatment of 44 cirrhotic rats with ascites. Animals were allowed free access to food and water throughout the study.
(§2) The study consisted of 3 treatment cohorts, as detailed in Table 10. Animals developing and maintaining ascites for 2 weeks were randomly assigned to treatment groups. Ringer Braun saline solution was used as vehicle. IV bolus were administered via femoral veins.
Cohort 2: Animals were anesthetized and the left femoral artery and vein catheterized. Bladders were exposed by suprapubic incision and catheterized for urine collection. A priming dose of PAH (4 mg/animal) was administered via the jugular vein followed by a constant infusion (2 mL/hr) of Ringer solution containing 4 mg/mL PAH. After 30 minutes of infusion, a baseline 30 minute urine collection was obtained for urine volume, urine sodium content, urine creatinine content, and PAH measurements. In the middle of the 30 minute urine collection, a blood sample (0.8 mL) was obtained via the femoral artery catheter for PAH and creatinine measurements. […] Five 30 minute urine collections were performed over 150 minutes, with blood samples collected in the middle of each 30 minute urine collection. Following blood sampling, packed cells were reconstituted with Ringer solution and reinjected over a period of 3 minutes.

[2] = tested on: CCl4-induced rat model of cirrhosis and ascites; experiment: CCl4-induced cirrhosis and ascites rats, cohort 1 (SC bolus b.i.d. 3 days), renal excretory function; type: in vivo
Experimental: as §1, §2
This study was performed at the Hospital Clinic (Barcelona, Spain). Measurements and/or samples were collected for additional experimental parameters (e.g., water intake, urine osmolality, serum samples, tissue samples, etc.) but data are not reported.
Cohort 1: Animals were placed into metabolic cages for continuous urine collection and administered 100 μg/kg FE 204205 or vehicle by SC bolus for 3 days (see Table 3 for details). Measurements of body weight, urine volume, and urine sodium content were taken prior to treatment (Day 0) and daily over the course of treatment administration. After 3 days of treatment, the volume of ascites was measured by aspiration and the animals were sacrificed by isofluorane overdose.

[3] = Metabolite pattern (M1, M5) in human plasma after i.v. infusion and s.c. injection; type: in vivo
Experimental: Urinalysis was performed locally by means of a dip-stick test. […] In case any result of the dipstick was abnormal and clinically significant, a new urine test was to be performed. If the abnormal result was confirmed, further examination could be initiated at the discretion of the Investigator. Clinically significant abnormal findings were reported as AEs. The metabolite pattern of Compound 1 in plasma and urine were measured.
In some instances, an objective of the study was to investigate metabolite pattern of Compound 1 in plasma and urine.
Due to analytical method interference, it was not possible to analyses for metabolites in human urine. After i.v. administration, the metabolite M1 was present only at low concentrations in one subject in the male and 4 subjects in the female dose group 0.6 mg, while it was present in all females and 5 of the 6 males in the 0.9 mg dose group, albeit with few exceptions below LOQ (FIG. 44, panel A).

hV1b receptor = molecular target: T1, hV1b receptor (Homo sapiens, UniProt P47901); experiment: Luciferase reporter gene assay, human V1b; details: read-out: % MPE
T1 sequence (P47901 1-424): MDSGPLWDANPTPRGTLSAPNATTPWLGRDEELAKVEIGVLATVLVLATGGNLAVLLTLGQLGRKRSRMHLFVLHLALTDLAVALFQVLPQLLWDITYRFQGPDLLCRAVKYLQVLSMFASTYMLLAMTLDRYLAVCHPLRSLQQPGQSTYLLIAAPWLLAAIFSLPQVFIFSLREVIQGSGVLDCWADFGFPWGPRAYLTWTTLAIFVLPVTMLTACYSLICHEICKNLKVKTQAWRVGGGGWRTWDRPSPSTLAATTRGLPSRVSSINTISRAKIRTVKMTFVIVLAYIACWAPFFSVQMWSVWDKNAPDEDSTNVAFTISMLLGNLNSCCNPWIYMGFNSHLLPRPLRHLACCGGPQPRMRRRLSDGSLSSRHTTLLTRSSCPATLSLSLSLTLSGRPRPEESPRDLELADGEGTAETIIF
Experimental: Cell Lines. Studies were conducted with cell lines expressing rat (r) or human (h) Via, V1b, V2, or OT receptors. For the experiments with human receptors, human embryonic kidney (HEK)-flp-in cells stably expressing the lacZ-Zeocin™ fusion gene were used for expression of hV1a and hV1b. These cells were designed for use with the Flp-In™ expression vector containing the gene of interest (here hV1a or hV1b) and the Flp recombinase expression plasmid, pOG44. For hV2 and hOTR, HEK-293 cells transiently expressing hV2 were used.
Cell Maintenance. […]
Functional Cell-Based Assays. To detect activity generated by binding of the test compounds to endogenous rV1a receptors or the stably expressed hV1a receptors, Fluorometric Imaging Plate Reader (FL1PR) calcium assays were performed. Briefly, real-time fluorescence of an intracellular calcium-sensitive dye was measured immediately upon addition of the test compound at various concentrations. […] Expression of the luciferase gene was determined after 5-h incubation with various concentrations of test compound. […] For V1a receptor response, area under the curve of the real-time calcium traces, expressed as relative fluorescence units, was determined. […]

## CC[C@H](C)[C@@H]1NC(=O)[C@H](Cc2ccccc2)NC(=O)[C@@H](N)CSSC[C@@H](C(=O)N2CCC[C@H]2C(=O)N[C@@H](CCNC(=O)[C@@H](N)CCCCNC(=O)[C@H](CCCCNC(C)=O)NC(=O)CC[C@H](NC(=O)[C@H](CCCNC(=N)N)NC(=O)[C@@H]2CCCN2C(=O)[C@H](C)NC(=O)[C@H](CC(N)=O)NC(=O)[C@H](CCC(N)=O)NC(=O)[C@H](Cc2ccccc2)NC(=O)[C@@H](Cc2ccc(OC)cc2)NC(=O)Cc2ccccc2)C(N)=O)C(=O)NCC(N)=O)NC(=O)[C@H](CC(N)=O)NC(=O)[C@H](CCC(N)=O)NC1=O [Compound 1, Glycinamide, L-cysteinyl-L-phenylalanyl-L-isoleucyl-L-glutaminyl-L-asparaginyl-L-cysteinyl-L-prolyl-N4-(phenylacetyl-O-methyl-D-tyrosyl-L-phenylalanyl-L-glutaminyl-L-asparaginyl-L-alanyl-L-prolyl-L-arginyl-L-isoglutamyl-N5-acetyl-L-lysyl-L-ε-lysyl)-L-2,4-diaminobutyryl-, cyclic (1→6)-disulfide] (I: H-CFIQNCP[Dab]G-NH2 / II: PhAc-[dY](Me)FQNAPR[isoGln]K(Ac)[εLys]; disulfide I:1-I:6; amide I:8-II:C)
Skin blood flow (SBF)
  SBF ED50: 25.2 pmol/kg/min
  SBF Emax: 38.6%
  greatest percent change from baseline in skin flow: −42.1%
[1]; 0 min
  Sodium Excretion: 0.4 μEq/min
  Urine Volume: 8.4 µL/min
[1]; 30 min
  Sodium Excretion: 1.1 μEq/min
  Urine Volume: 16.4 µL/min
[1]; 60 min
  Sodium Excretion: 4.1 μEq/min
  Urine Volume: 26.5 µL/min
[1]; 90 min
  Sodium Excretion: 5.3 μEq/min
  Urine Volume: 26.2 µL/min
[1]; 120 min
  Sodium Excretion: 7.0 μEq/min
  Urine Volume: 32.3 µL/min
[1]; 150 min
  Sodium Excretion: 7.2 μEq/min
  Urine Volume: 32.7 µL/min
[2]; 100 μg/kg SC b.i.d., after 3 days (vehicle 18.6)
  Ascites Volume: 6.0 mL
[2]; 100 μg/kg SC b.i.d., basal
  Body Weight: 461 grs
  Sodium Excretion: 0.6 mEq/day
  Urine Volume: 9.7 mL/day
[2]; 100 μg/kg SC b.i.d., day 1
  Body Weight: 402 grs
  Sodium Excretion: 8.2 mEq/day
  Urine Volume: 51.6 mL/day
[2]; 100 μg/kg SC b.i.d., day 2
  Body Weight: 397 grs
  Sodium Excretion: 1.1 mEq/day
  Urine Volume: 21.8 mL/day
[2]; 100 μg/kg SC b.i.d., day 3
  Body Weight: 396 grs
  Sodium Excretion: 0.3 mEq/day
  Urine Volume: 16.6 mL/day
[2]; SC, three days
  effect on ascites: fully evacuated the ascites accumulated in the peritoneal cavity or markedly diminished ascites volume
[3]; i.v.
  half-life: ~4 h
[3]; s.c.
  half-life: about 2 hours
[3]; s.c. (bolus) injection, human
  conversion of Compound 1 to M1: 80-90%
hV1b receptor
  Emax: 72%
